12 molecules from PubChem BioAssay (NCI) can be followed below.

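A five-concentration, 48-hour dose response in 96-well plates underlies each endpoint, interpolated linearly between surrounding concentrations. TGI denotes the concentration required for complete inhibition of growth.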

Assay in all cases: NCI-60 cell line screen, 48 h
The test system of assay [1] is UACC-62 melanoma.
The subject of assay [2] is BT-549 breast.
For assay [3], the system named is SK-MEL-28 melanoma.
In assay [4] the test system is SN12C renal.
Assay [5] has as its system RXF 393 renal.
For assay [6], the system named is CAKI-1 renal.
In assay [7] the test system is K-562 leukemia.
Assay [8] concerns HCC-2998 colon.
The test system of assay [9] is SF-539 CNS.
Assay [10] concerns TK-10 renal.
The test system of assay [11] is UO-31 renal.

On to `CN(C)c1nc(NC23CC4CC(CC(C4)C2)C3)nc(N(C)C)n1`, for which the TGI in assay [1] was over 76.1 µM; in assay [2], over 100 µM; in [3] it was over 69.9 µM; in assay [4], over 85.4 µM; in assay [5] it was 17.7 µM; in assay [6], over 100 µM. Besides, the TGI in assay [7] is 7.84 µM; in assay [8], 97.1 µM; in assay [9] it was over 79.6 µM; in assay [10], over 100 µM; in assay [11], over 77.2 µM.

With `CCOC(=O)N1CCN(c2ccc3c(C)cc(C)nc3n2)CC1`, the TGI in assay [1], in [2], in assay [3], in assay [4], in assay [5] and in assay [6] was over 100 µM throughout. In addition, the TGI in assay [7], in [8], in [9], in assay [10] and in assay [11] was over 100 µM in each case.

Take `COC(=O)C1=C(C)NC2(O)C=CC(=O)C3C(=O)N(c4ccccc4)C(=O)C132` (configuration not stated): the TGI in [1] is over 100 µM; in [2], over 100 µM; in assay [3], 78.7 µM; in [4], over 100 µM; in [5] it was over 100 µM; in assay [6], over 100 µM. Moreover, the TGI in [7], in assay [8], in [9], in assay [10] and in assay [11] was over 100 µM each time.

On to `O=c1[nH]nc(-c2ccccc2)n1/N=C/c1ccncc1`, for which the TGI in [1], in assay [2], in assay [3], in assay [4], in assay [5] and in [6] was over 100 µM in each case. The TGI in assay [7], in [8], in assay [9], in assay [10] and in assay [11] was over 100 µM in each case.

In the case of `Cn1ccn2c3nc4ccccc4nc3c(=O)c(C#N)c12`, the TGI in assay [1], in assay [2], in assay [3], in assay [4], in assay [5] and in assay [6] was over 100 µM throughout. For the same molecule, the TGI in [7], in [8], in assay [9], in assay [10] and in [11] was over 100 µM each time.

On to `O=C1CC(=O)c2c(O)cc(O)c(c2O)-c2c(ccc(O)c2O)C2=CC(=O)c3c(O)cc(O)c(c3O2)-c2c1ccc(O)c2O` (tested in a mixture with another compound), for which the TGI in assay [1], in [2], in [3], in assay [4], in assay [5] and in [6] was over 50 µM each time. The TGI in [7], in [8], in assay [9], in [10] and in assay [11] was over 50 µM throughout.

As for `O=C(NCCC(F)(F)C(F)(F)C(F)(F)C(F)(F)F)NC1OC(CO)C(O)C(O)C1O` (configuration not stated), the TGI in assay [1], in assay [2], in assay [3], in assay [4], in [5] and in assay [6] was over 100 µM throughout. Besides, the TGI in assay [7], in assay [8], in assay [9], in assay [10] and in assay [11] was over 100 µM throughout.

For the molecule `N#Cc1c(SCc2ccccc2)nc(-c2ccccc2)[nH]c1=S`, the TGI was found to be 56.6 µM in [1]; 54.2 µM in assay [2]; 55 µM in [3]; 82 µM in assay [4]; 44.9 µM in assay [5]; 79 µM in assay [6]. Moreover, the TGI is over 100 µM in assay [7]; 39.8 µM in [8]; 56.6 µM in assay [9]; over 100 µM in assay [10]; 35 µM in assay [11].

As for `CC12CCC(C(=O)O1)C(C)(C)O2` (configuration not stated), the TGI in [1], in [2], in assay [3], in [4], in assay [5] and in [6] was over 100 µM throughout. Moreover, the TGI in assay [7], in assay [8], in assay [9], in assay [10] and in assay [11] was over 100 µM in each case.

`[Se]=P(c1ccccc1)(c1ccccc1)c1ccc(C(c2ccccc2)=P(c2ccccc2)(c2ccccc2)c2ccccc2)cc1`: the TGI in [1] came out at 3.85 µM; in assay [2], 6.56 µM; in assay [3], 20.2 µM; in assay [4], 10.2 µM; in assay [5], 10.9 µM; in assay [6], 8.5 µM. Also, the TGI came out at 3.33 µM in [7]; 11.6 µM in assay [8]; 17.8 µM in assay [9]; 6.88 µM in assay [10]; 20.1 µM in assay [11].

Take `CC(=O)NCCC1CN(C(=O)/C=C\C#C[Si](C)(C)C)c2ccccc21` (configuration not stated): the TGI in assay [1] is 32.4 µM; in assay [2], over 100 µM; in assay [3], over 100 µM; in [4], over 100 µM; in assay [5], 55.3 µM; in [6] it was 33.2 µM. The TGI in assay [7] is over 100 µM; in [8], 43.2 µM; in assay [9], 73.8 µM; in [10], over 100 µM; in assay [11], over 100 µM.

Consider `NCCCn1c2ccccc2c2c3c(c4c(c21)CCC(O)CC4)C(=O)NC3=O` (configuration not stated), for which the TGI is 17.3 µM in assay [1]; 20.2 µM in [2]; 13.1 µM in assay [3]; 13.6 µM in assay [4]; 13.6 µM in assay [5]; 16.6 µM in assay [6]. Also, the TGI stood at 8.5 µM in assay [7]; 4.24 µM in assay [8]; 21.6 µM in [9]; 14.7 µM in [10]; 19.9 µM in [11].
